The values below come from US11292796B2 (SIGNAL PHARMACEUTICALS, LLC, priority 2008, dated 2022).

Each structure is given as a SMILES string.

In the test the target is T1, mTOR (Homo sapiens, UniProt P42345).
T1 construct: purchased Invitrogen PR8683A
T1 sequence (P42345 1360-2549 limits assumed): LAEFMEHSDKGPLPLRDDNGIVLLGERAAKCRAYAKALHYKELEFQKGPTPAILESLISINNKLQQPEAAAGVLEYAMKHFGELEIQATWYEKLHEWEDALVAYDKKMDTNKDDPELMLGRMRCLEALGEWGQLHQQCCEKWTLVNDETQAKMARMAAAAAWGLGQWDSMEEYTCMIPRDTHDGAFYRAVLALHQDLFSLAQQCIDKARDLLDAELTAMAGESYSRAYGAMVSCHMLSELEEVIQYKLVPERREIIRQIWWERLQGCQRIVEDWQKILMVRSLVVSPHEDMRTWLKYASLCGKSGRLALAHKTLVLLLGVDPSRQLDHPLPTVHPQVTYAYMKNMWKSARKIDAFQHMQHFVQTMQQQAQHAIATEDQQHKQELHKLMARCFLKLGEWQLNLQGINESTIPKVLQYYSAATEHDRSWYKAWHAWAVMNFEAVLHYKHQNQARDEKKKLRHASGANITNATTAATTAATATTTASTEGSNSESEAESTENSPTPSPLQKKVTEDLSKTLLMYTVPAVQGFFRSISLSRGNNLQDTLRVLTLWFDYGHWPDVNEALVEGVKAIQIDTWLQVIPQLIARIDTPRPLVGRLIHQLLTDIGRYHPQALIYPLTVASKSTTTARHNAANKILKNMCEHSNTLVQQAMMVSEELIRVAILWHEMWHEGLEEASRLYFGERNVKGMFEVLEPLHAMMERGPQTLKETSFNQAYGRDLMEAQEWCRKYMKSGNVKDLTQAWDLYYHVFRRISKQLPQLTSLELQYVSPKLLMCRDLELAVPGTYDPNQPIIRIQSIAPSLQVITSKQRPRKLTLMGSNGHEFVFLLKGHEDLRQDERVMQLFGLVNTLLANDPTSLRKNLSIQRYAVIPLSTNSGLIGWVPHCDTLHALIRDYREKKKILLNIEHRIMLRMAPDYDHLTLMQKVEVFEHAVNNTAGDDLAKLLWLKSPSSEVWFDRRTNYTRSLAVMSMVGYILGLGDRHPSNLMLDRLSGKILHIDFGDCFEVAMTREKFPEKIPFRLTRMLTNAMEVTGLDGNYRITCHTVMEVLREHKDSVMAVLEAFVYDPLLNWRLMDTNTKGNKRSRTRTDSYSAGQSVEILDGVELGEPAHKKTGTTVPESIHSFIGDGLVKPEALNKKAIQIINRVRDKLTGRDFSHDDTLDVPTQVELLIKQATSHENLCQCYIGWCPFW
In words: mTOR HTR-FRET assay. The note with it: read-out: Act. Level (IC50 in mTor HTR-FRET assay). It is filed as biochemical. The protocol:
The following is an example of an assay that can be used to determine the mTOR inhibitory activity of a test compound. Heteroaryl Compounds were dissolved in DMSO and prepared as 10 mM stocks and diluted appropriately for the experiments. Reagents were prepared as follows:
“Simple TOR buffer” (used to dilute high glycerol TOR fraction): 10 mM Tris pH 7.4, 100 mM NaCl, 0.1% Tween-20, 1 mM DTT. Invitrogen mTOR (cat #PR8683A) was diluted in this buffer to an assay concentration of 0.200 μg/mL.
To 20 μL of the Simple mTor buffer is added 0.5 μL of test compound in DMSO. To initiate the reaction 5 μL of ATP/Substrate solution was added to 20 μL of the Simple TOR buffer solution (control) and to the compound solution prepared above.
As usually defined, the IC50 is the concentration that inhibits the measured activity by half. For `Cc1nc(C(C)(C)O)ccc1-c1cnc2c(n1)N(CC1CCOCC1)CC(=O)N2` [Example 81, 6-(6-(2-hydroxypropan-2-yl)-2-methylpyridin-3-yl)-4-((tetrahydro-2H-pyran-4-yl)methyl)-3,4-dihydropyrazino[2,3-b]pyrazin-2(1H)-one], the IC50 is 0.005 to 250 nM.
The figure for `CO[C@H]1CC[C@H](N2CC(=O)Nc3ncc(-c4ccc(C(C)(C)O)nc4C)nc32)CC1` [Example 82, 6-(6-(2-hydroxypropan-2-yl)-2-methylpyridin-3-yl)-4-(trans-4-methoxycyclohexyl)-3,4-dihydropyrazino[2,3-b]pyrazin-2(1H)-one] is 250 to 500 nM.
For `C[C@H](O)c1ccc(-c2cnc3c(n2)N(CCC2CCOCC2)CC(=O)N3)cn1` [Example 83, (S)-6-(6-(1-hydroxyethyl)pyridin-3-yl)-4-(2-(tetrahydro-2H-pyran-4-yl)ethyl)-3,4-dihydropyrazino[2,3-b]pyrazin-2(1H)-one], the IC50 lay in the range of 250 to 500 nM.
The figure for `Cc1cc(-c2nnc[nH]2)ccc1-c1cnc2c(n1)N(CCC1CCOCC1)C(C)(C)C(=O)N2` [Example 84, 3,3-dimethyl-6-(2-methyl-4-(4H-1,2,4-triazol-3-yl)phenyl)-4-(2-(tetrahydro-2H-pyran-4-yl)ethyl)-3,4-dihydropyrazino[2,3-b]pyrazin-2(1H)-one] is 0.005 to 250 nM; for `CC(C)(O)c1ccc(-c2cnc3c(n2)N(CCC2CCOCC2)C(C)(C)C(=O)N3)cn1` [Example 85, 6-(6-(2-hydroxypropan-2-yl)pyridin-3-yl)-3,3-dimethyl-4-(2-(tetrahydro-2H-pyran-4-yl)ethyl)-3,4-dihydropyrazino[2,3-b]pyrazin-2(1H)-one] it is 500 to 1000 nM.
As to `CO[C@H]1CC[C@H](N2CC(=O)Nc3ncc(-c4ccc(C(C)(C)O)cc4)nc32)CC1` [Example 86, 6-(4-(2-hydroxypropan-2-yl)phenyl)-4-(trans-4-methoxycyclohexyl)-3,4-dihydropyrazino[2,3-b]pyrazin-2(1H)-one], the half-maximal inhibitory concentration (IC50) was in the range of 0.005 to 250 nM.
The figure for `CO[C@H]1CC[C@H](CN2CC(=O)Nc3ncc(-c4ccc(C(C)(C)O)cc4)nc32)CC1` [Example 87, 6-(4-(2-hydroxypropan-2-yl)phenyl)-4-((trans-4-methoxycyclohexyl)methyl)-3,4-dihydropyrazino[2,3-b]pyrazin-2(1H)-one] is 250 to 500 nM; for `CC(C)(O)c1ccc(-c2cnc3c(n2)N(CC2CCOCC2)CC(=O)N3)cc1` [Example 90, 6-(4-(2-hydroxypropan-2-yl)phenyl)-4-((tetrahydro-2H-pyran-4-yl)methyl)-3,4-dihydropyrazino[2,3-b]pyrazin-2(1H)-one] it is 0.005 to 250 nM.
As to `O=C1Nc2ncc(-c3ccc(-c4nnc[nH]4)nc3)nc2N2CCOCC12` (stereo not drawn) [Example 92, 9-(6-(4H-1,2,4-triazol-3-yl)-3-pyridyl)-6,11,4a-trihydromorpholino[4,3-e]pyrazino[2,3-b]pyrazin-5-one], the IC50 fell in the range of 500 to 1000 nM.
Consider `Cc1nc(-c2nnc[nH]2)ccc1-c1cnc2c(n1)N(CC1CCOCC1)CC(=O)N2` [Example 93, 6-(2-methyl-6-(4H-1,2,4-triazol-3-yl)pyridin-3-yl)-4-((tetrahydro-2H-pyran-4-yl)methyl)-3,4-dihydropyrazino[2,3-b]pyrazin-2(1H)-one], for which the IC50 is 250 to 500 nM.
For `CO[C@H]1CC[C@@H](N2CC(=O)Nc3ncc(-c4ccc(C#N)nc4C)nc32)CC1` [Example 94, 5-(8-(cis-4-methoxycyclohexyl)-6-oxo-5,6,7,8-tetrahydropyrazino[2,3-b]pyrazin-2-yl)-6-methylpicolinonitrile], the IC50 fell in the range of 1000 to 10000 nM.
Turning to `COCC(=O)N1CCN2c3nc(-c4ccc(-c5nnc[nH]5)cc4C)cnc3NC(=O)C2C1` (stereo not drawn) [Example 96, 9-(4-(4H-1,2,4-triazol-3-yl)-2-methylphenyl)-3-(2-methoxyacetyl)-6,11,4a-trihydropiperazino[1,2-e]pyrazino[2,3-b]pyrazin-5-one], the IC50 was 0.005 to 250 nM.
The figure for `Cc1cc(-c2nnc[nH]2)ccc1-c1cnc2c(n1)N1CCNCC1C(=O)N2` (stereo not drawn) [Example 97, 9-(4-(4H-1,2,4-triazol-3-yl)-2-methylphenyl)-6,11,4a-trihydropiperazino[1,2-e]pyrazino[2,3-b]pyrazin-5-one] is 0.005 to 250 nM; for `COCCN1CCN2c3nc(-c4ccc(-c5nnc[nH]5)cc4C)cnc3NC(=O)C2C1` (stereo not drawn) [Example 98, 9-(4-(4H-1,2,4-triazol-3-yl)-2-methylphenyl)-3-(2-methoxyethyl)-6,11,4a-trihydropiperazino[1,2-e]pyrazino[2,3-b]pyrazin-5-one] it is 250 to 500 nM; for `Cc1nc(-c2nnc[nH]2)ccc1-c1cnc2c(n1)N(CC1CCCC1)CC(=O)N2` [Example 99, 4-(cyclopentylmethyl)-6-(2-methyl-6-(4H-1,2,4-triazol-3-yl)pyridin-3-yl)-3,4-dihydropyrazino[2,3-b]pyrazin-2(1H)-one] it is 0.005 to 250 nM.
The figure for `Cc1nc(-c2nnc[nH]2)ccc1-c1cnc2c(n1)N1CCOCC1C(=O)N2` (stereo not drawn) [Example 100, 9-(6-(4H-1,2,4-triazol-3-yl)-2-methyl-3-pyridyl)-6,11,4a-trihydromorpholino[4,3-e]pyrazino[2,3-b]pyrazin-5-one] is 250 to 500 nM; for `CC(C)(O)c1ccc(-c2cnc3c(n2)N([C@H]2CC[C@H](O)CC2)CC(=O)N3)cn1` [Example 101, 4-(trans-4-hydroxycyclohexyl)-6-(6-(2-hydroxypropan-2-yl)pyridin-3-yl)-3,4-dihydropyrazino[2,3-b]pyrazin-2(1H)-one] it is 0.005 to 250 nM.
The figure for `CC(C)(O)c1ccc(-c2cnc3c(n2)N([C@H]2CC[C@@H](O)CC2)CC(=O)N3)cn1` [Example 102, 4-(cis-4-hydroxycyclohexyl)-6-(6-(2-hydroxypropan-2-yl)pyridin-3-yl)-3,4-dihydropyrazino[2,3-b]pyrazin-2(1H)-one] is 250 to 500 nM.
On to `CC(C)(O)c1ccc(-c2cnc3c(n2)N(CC2CCOC2)CC(=O)N3)cn1` (stereo not drawn) [Example 103, 6-(6-(2-hydroxypropan-2-yl)pyridin-3-yl)-4-((tetrahydrofuran-3-yl)methyl)-3,4-dihydropyrazino[2,3-b]pyrazin-2(1H)-one], for which the half-maximal inhibitory concentration (IC50) lay within 500 to 1000 nM.
The figure for `CC(C)(O)c1ccc(-c2cnc3c(n2)N(CC2CCCC2)CC(=O)N3)cn1` [Example 104, 4-(cyclopentylmethyl)-6-(6-(2-hydroxypropan-2-yl)pyridin-3-yl)-3,4-dihydropyrazino[2,3-b]pyrazin-2(1H)-one] is 0.005 to 250 nM; for `CC(C)(C)CN1CC(=O)Nc2ncc(-c3ccc(C(C)(C)O)nc3)nc21` [Example 105, 6-(6-(2-hydroxypropan-2-yl)pyridin-3-yl)-4-neopentyl-3,4-dihydropyrazino[2,3-b]pyrazin-2(1H)-one] it is 250 to 500 nM; for `CC(C)CN1CC(=O)Nc2ncc(-c3ccc(C(C)(C)O)nc3)nc21` [Example 106, 6-(6-(2-hydroxypropan-2-yl)pyridin-3-yl)-4-isobutyl-3,4-dihydropyrazino[2,3-b]pyrazin-2(1H)-one] it is 500 to 1000 nM.
For the compound `Cc1cc(-c2nnc[nH]2)ccc1-c1cnc2c(n1)N(CCC1CCOCC1)C(C)C(=O)N2` (stereo not drawn) [Example 107, 3-methyl-6-(2-methyl-4-(4H-1,2,4-triazol-3-yl)phenyl)-4-(2-(tetrahydro-2H-pyran-4-yl)ethyl)-3,4-dihydropyrazino[2,3-b]pyrazin-2(1H)-one], the IC50 lay in the range of 0.005 to 250 nM.
The figure for `CC(C)(O)c1ccc(-c2cnc3c(n2)N(C2CCNCC2)CC(=O)N3)cn1` [Example 108, 6-(6-(2-hydroxypropan-2-yl)pyridin-3-yl)-4-(piperidin-4-yl)-3,4-dihydropyrazino[2,3-b]pyrazin-2(1H)-one] is 1000 to 10000 nM; for `CC(C)(O)c1ccc(-c2cnc3c(n2)N(CCC2CCCOC2)CC(=O)N3)cn1` (stereo not drawn) [Example 109, 6-(6-(2-hydroxypropan-2-yl)pyridin-3-yl)-4-(2-(tetrahydro-2H-pyran-3-yl)ethyl)-3,4-dihydropyrazino[2,3-b]pyrazin-2(1H)-one] it is 0.005 to 250 nM; for `CO[C@H]1C[C@@H]2C(=O)Nc3ncc(-c4ccc(-c5nnc[nH]5)cc4C)nc3N2C1` [Example 112, 8-(4-(4H-1,2,4-triazol-3-yl)-2-methylphenyl)(2S,3aR)-2-methoxy-5,10,3a-trihydropyrazino[2,3-b]pyrrolidino[1,2-e]pyrazin-4-one] it is 0.005 to 250 nM.
For the compound `CO[C@H]1C[C@H]2C(=O)Nc3ncc(-c4ccc(-c5nnc[nH]5)cc4C)nc3N2C1` [Example 113, 8-(4-(4H-1,2,4-triazol-3-yl)-2-methylphenyl)(2S,3aS)-2-methoxy-5,10,3a-trihydropyrazino[2,3-b]pyrrolidino[1,2-e]pyrazin-4-one], the IC50 is 250 to 500 nM.
The figure for `COCCCN1CC(=O)Nc2ncc(-c3ccc(C(C)(C)O)nc3)nc21` [Example 114, 6-(6-(2-hydroxypropan-2-yl)pyridin-3-yl)-4-(3-methoxypropyl)-3,4-dihydropyrazino[2,3-b]pyrazin-2(1H)-one] is 1000 to 10000 nM; for `CC(C)(O)c1ccc(-c2cnc3c(n2)N(C[C@@H]2CCCO2)CC(=O)N3)cn1` [Example 115, (S)-6-(6-(2-hydroxypropan-2-yl)pyridin-3-yl)-4-((tetrahydrofuran-2-yl)methyl)-3,4-dihydropyrazino[2,3-b]pyrazin-2(1H)-one] it is 1000 to 10000 nM; for `CC(C)(O)c1ccc(-c2cnc3c(n2)N(C[C@H]2CCCO2)CC(=O)N3)cn1` [Example 116, (R)-6-(6-(2-hydroxypropan-2-yl)pyridin-3-yl)-4-((tetrahydrofuran-2-yl)methyl)-3,4-dihydropyrazino[2,3-b]pyrazin-2(1H)-one] it is 500 to 1000 nM.
